Measured values from patent US7560487B2, “Use of (R)—ibuprofen methanesulfonamide and salts thereof in the treatment and prevention of rejection reactions of transplanted organs” (Dompé Pha.r.ma S.p.A., priority 2001, dated 2009).
“And” between values parts separate entries of the source, which are not always exact repeats. Equal values may be shown once.

How the values were obtained:
IL-8 = conditions: in vitro; described in WO 00/24710; cited from earlier work
[1] = test system: rats receiving syngeneic kidney transplant; assay: Plasma creatinine after syngeneic kidney transplant (cold ischemia/reperfusion); assay type: in vivo, Lewis rats; conditions: for Plasma Creatinine 16 h: 16 h after transplant; for Plasma Creatinine 16 h / Plasma Creatinine 24 h: 15 mg/kg; for Plasma Creatinine 24 h: 24 h after transplant
Procedure: (§1) Adult male Lewis rats (RT11) (Charles River, Calco Italia S.p.A, Italy) were used. All animals were allowed free access to food and water. The study was performed in a syngeneic kidney transplant model using such rats as donor and graft recipients. Donor animals were anaesthetized with leptofen. The left kidney was prepared by freeing the ureter from the attachments. The renal artery was separated from the renal vein by dissection. The donor kidney and ureter were removed “en bloc” and flushed with Belzer (UW) containing 1000 U/ml of heparin. Then the kidney was placed in an iced Belzer (UW) solution for 4-6 hours (cold ischemia) until transplant. Recipients were prepared by removal of the left kidney. Animal treatment with DF 1681B is summarized below. Kidney grafts were washed with saline solution before transplant. An anastomosis was created between the recipient and the donor renal artery as well as renal vein with end-to-end anastomosis. Vascular clamps were released after 30 minutes (warm ischemia). Donor and recipient ureters were attached end-to-end. The native right kidney was then removed. Animals were placed in individual metabolic cages for measurements of daily urine output as an index of renal function recovery. After 16 and 24 hours, renal function was assessed by measuring plasma creatinine concentration. Twenty-four hours after kidney transplantation, the animals were sacrificed. The kidney graft was removed, cut in slices and put in Dubosq-Brazil solution for the analysis of conventional histology by light microscopy. Moreover, additional kidney fragments were frozen in liquid nitrogen and used for immunohistochemical analysis of inflammatory cell infiltrate (polymorphonuclear cells, MHC class II positive cells).
(§2) Group 1 (n.=3) rats recipients of a kidney graft exposed to 4 hours cold ischemia and treated with the IL-8 inhibitor DF 1681B.
(§3) Group 2 (n.=3) rats recipients of a kidney graft exposed to 4 hours cold ischemia and treated with the vehicle.
(§4) Group 3 (n.=3) rats recipients of a kidney graft exposed to 6 hours cold ischemia and treated with the IL-8 inhibitor DF 1681B.
(§5) Group 4 (n.=3) rats recipients of a kidney graft exposed to 6 hours cold ischemia and treated with the vehicle.
(§6) The recipients were pretreated the day before the experiment (15 mg/kg s.c.). The animals received an intravenous injection of DF 1681B (15 mg/kg) immediately before reperfusion of the transplanted kidney. Additional administration of the compound (15 mg/kg s.c.) was performed 2 hours after transplantation. Control animals were given vehicle at the same time points and using the same administration method as for animals treated with DF 1681B.
(§7) Data were analyzed using the non-parametric Kruskal-Wallis test for multiple comparisons or the Tukey-Cicchetti test.

[2] = test system: rats receiving syngeneic kidney transplant; assay: Immunohistochemical granulocyte count in transplanted kidney, syngeneic transplant; assay type: in vivo, Lewis rats; design: Granulocytes Intravasc.: unit not given here; conditions: for Granulocytes Inrterstitial / Granulocytes Intraglom / Granulocytes Intravasc. / Granulocytes Periglom. / Granulocytes Perivasc.: 24 h post-transplant
Procedure: as §1, §2, §3, §4, §5, §6, §7

[3] = test system: rats receiving syngeneic kidney transplant; assay: MHC II positive interstitial cell count in transplanted kidney, syngeneic transplant; assay type: in vivo, Lewis rats; design: MHC II+ interstitial cells: unit not given here
Procedure: as §1, §2, §3, §4, §5, §6, §7

[4] = test system: rats receiving syngeneic kidney transplant; assay: Semi-quantitative histological score for renal damage, syngeneic transplant; assay type: in vivo, Lewis rats
Procedure: as §1, §2, §3, §4, §5, §6, §7

[5] = test system: rats receiving allogeneic kidney transplant; assay: Plasma creatinine after allogeneic kidney transplant; assay type: in vivo, Brown Norway rats; conditions: for Plasma Creatinine 16 h / Plasma Creatinine 24 h: allogeneic, 6 h cold ischemia
Procedure: The following experimental group of animals were considered:
Group 1 (n=9) Brown Norway rats recipients of a kidney graft of Lewis rats exposed to 6 hours cold ischemia and treated with vehicle.
Group 2 (n=5) Brown Norway rats recipients of a kidney graft of Lewis rats exposed to 6 hours cold ischemia and treated with the IL-8 inhibitor DF 1681B.
as §6, with “experiment (20” for “experiment (15”, “The animal” for “The animals”, “1681B (20” for “1681B (15”, “compound (20” for “compound (15”
as §7

mouse model = assay: Chemotaxis in vivo in a mouse model
[6] = test system: models of ischemia/reperfusion injury; assay: PMN infiltration in models of ischemia/reperfusion injury, mice; assay type: in vivo
[7] = test system: models of ischemia/reperfusion injury; assay: PMN infiltration in models of ischemia/reperfusion injury, rats; assay type: in vivo
[8] = 4 h cold ischemia, group mean ± SD
[9] = 4 h cold ischemia, individual rats, 15 mg/kg s.c./i.v./s.c.
[10] = 6 h cold ischemia, group mean ± SD
[11] = 6 h cold ischemia, individual rats
[12] = 4 h cold ischemia, individual rats, high-power fields (X400)
[13] = 6 h cold ischemia, individual rats, high-power fields (X400)
[14] = 4 h cold ischemia, 24 h after transplantation, individual rats
[15] = 6 h cold ischemia, 24 h after transplantation, individual rats
[16] = individual Brown Norway rats, 20 mg/kg s.c./i.v./s.c.

CC(C)Cc1ccc([C@@H](C)C(=O)NS(C)(=O)=O)cc1 [(R)-ibuprofen methanesulfonamide, R(−)-N-[2-(4-Isobutylphenyl)propionyl]-methanesulfonamide]
Inhibition of the chemotaxis of neutrophils induced by IL-8 (IL-8): selective in vitro inhibitors

CC(C)Cc1ccc([C@@H](C)C(=O)NS(C)(=O)=O)cc1.NCCCC[C@H](N)C(=O)O [DF1681B, R(−)-N-[2-(4-Isobutylphenyl)propionyl]-methanesulfonamide salt of L(+)-lysine]
Plasma Creatinine 16 h [1, 8]: 0.91 ± 0.18° mg/dl | Plasma Creatinine 16 h [1, 9]: 1.09 mg/dL and 0.74 mg/dL and 0.89 mg/dL | Plasma Creatinine 24 h [1, 8]: 0.78 ± 0.19° mg/dl | Plasma Creatinine 24 h [1, 9]: 0.99 mg/dL and 0.64 mg/dL and 0.71 mg/dL | Renal function (plasma creatinine), effect in words ([1]; 4 h ischemic kidneys): protected animals from renal function deterioration | Plasma Creatinine 16 h [1, 10]: 2.23 ± 0.36*Δ mg/dl | Plasma Creatinine 16 h [1, 11]: 2.32 mg/dL and 2.54 mg/dL and 1.84 mg/dL | Plasma Creatinine 24 h [1, 10]: 1.83 ± 0.09 mg/dL | Plasma Creatinine 24 h [1, 11]: 1.89 mg/dL and 1.87 mg/dL and 1.72 mg/dL | Plasma creatinine concentrations, effect in words ([1]; 6 hours ischemia): significantly reduced plasma creatinine concentrations | Granulocytes Inrterstitial [2, 8]: 12.1 ± 3.7 | Granulocytes Intraglom [2, 8]: 9.5 ± 3.9 | Granulocytes Intravasc. [2, 8]: 3.2 ± 4.3 | Granulocytes Periglom. [2, 8]: 5.4 ± 1.5 | Granulocytes Perivasc. [2, 8]: 5.4 ± 2.5 | Granulocytes Inrterstitial [2, 12]: 9.1 ± 6.4 and 11 ± 4.8 and 16.2 ± 8.3 | Granulocytes Intraglom [2, 12]: 7.4 ± 4.7 and 14 ± 15.4 and 7 ± 2.9 | Granulocytes Intravasc. [2, 12]: 1.5 ± 2.4 and 0 and 8 ± 5.3 | Granulocytes Periglom. [2, 12]: 5.3 ± 4.5 and 4 and 7 ± 8 | Granulocytes Perivasc. [2, 12]: 3 ± 0.8 and 8 ± 2.6 and 5.3 ± 4.6 | Granulocyte count in the intraglomerular area, effect in words ([2]; 4 hour cold ischemia): numerically but not significantly lowered | PMN infiltrate, effect in words ([2]; 4 hour cold ischemia): decreases the PMN infiltrate | Granulocytes Inrterstitial [2, 10]: 3 ± 1.7 cells per high-power field | Granulocytes Intraglom [2, 10]: 5.5 ± 2 cells per high-power field | Granulocytes Intravasc. [2, 10]: 1.1 ± 1.7 | Granulocytes Periglom. [2, 10]: 2.1 ± 1.1 | Granulocytes Perivasc. [2, 10]: 4.1 ± 2.9 | Granulocytes Inrterstitial [2, 13]: 2.5 ± 4.6 and 4.8 ± 5.6 and 1.6 ± 1.2 | Granulocytes Intraglom [2, 13]: 5.0 ± 6.0 and 3.7 ± 3.0 and 7.7 ± 6.5 | Granulocytes Intravasc. [2, 13]: 0.2 ± 0.4 and 0 and 3.0 ± 4.0 | Granulocytes Periglom. [2, 13]: 1.0 ± 1.8 and 3.2 ± 1.9 and 2.2 ± 1.2 | Granulocytes Perivasc. [2, 13]: 1.0 ± 1.3 and 6.8 ± 8.9 and 4.5 ± 4.4 | Interstitial inflammatory cells, effect in words ([2]; 6 hour ischemia, p<0.01): significantly lowered | Number of MHC class II cells, effect in words ([3]; 4 and 6 hour ischemia): not affected | MHC II+ interstitial cells [3, 8]: 8.7 ± 3.4 | MHC II+ interstitial cells ([3]; 4 h cold ischemia, individual rats, high-power fields (×400)): 5.1 ± 6.2 and 9.1 ± 2 and 11.9 ± 6.3 | MHC II+ interstitial cells [3, 10]: 14.4 ± 4.7 | MHC II+ interstitial cells ([3]; 6 h cold ischemia, individual rats, high-power fields (×400)): 10.5 ± 4.7 and 13.1 ± 7 and 19.7 ± 3.3 | Histological damage Glomerular (score) [4, 14]: 0 score | Histological damage Interstitial (score) [4, 14]: 2.5 score and 2 score (2×) | Histological damage Tubular (score) [4, 14]: 1.5 score and 0.7 score and 0.5 score | Histological damage Glomerular (score) [4, 8]: 0 score | Histological damage Interstitial (score) [4, 8]: 2 ± 0.3 score | Histological damage Tubular (score) [4, 8]: 0.7 ± 0.6 score | Tubular changes, effect in words ([4]; 4 hour ischemia): attenuated but did not normalize tubular changes | Histological damage Glomerular (score) [4, 15]: 0 score | Histological damage Interstitial (score) [4, 15]: 3 score | Histological damage Tubular (score) [4, 15]: 1.7 score (2×) and 1.2 score | Histological damage Glomerular (score) [4, 10]: 0 score | Histological damage Interstitial (score) [4, 10]: 3 score | Histological damage Tubular (score) [4, 10]: 1.5 ± 0.3 score | Focal ischemic changes in the glomeruli, effect in words ([4]; 6 hour ischemia): prevented | Serum creatinine levels, effect in words ([5]; allogeneic transplant, 20 mg/kg, 16 and 24 hours): significant prevention of increased serum creatinine levels | Plasma Creatinine 16 h [5, 16]: 1.05 mg/dL and 1.2 mg/dL and 1 mg/dL and 0.84 mg/dL and 1.01 mg/dL | Plasma Creatinine 24 h [5, 16]: 1.3 mg/dL and 1.39 mg/dL and 0.87 mg/dL and 0.69 mg/dL and 0.85 mg/dL | Plasma Creatinine 16 h ([5]; group mean, 20 mg/kg): 1.02 mg/dL | Plasma Creatinine 24 h ([5]; group mean, 20 mg/kg): 1.02 mg/dL | Inhibition of chemotaxis in vivo (mouse model): inhibit chemotaxis in vivo | Inhibition of PMN infiltration [6]: inhibit PMN infiltration | Inhibition of PMN infiltration [7]: inhibit PMN infiltration | Inhibition of the chemotaxis of neutrophils induced by IL-8 (IL-8): selective in vitro inhibitors
